# Reference: ChEMBL document CHEMBL3217655, “The development of quinoloneesters as novel antimalarial agents targeting the Plasmodium falciparum bc1protein complex” (Medchemcomm, 2012)
# System: not listed separately
# Experiment: Inhibition of Plasmodium falciparum 3D7 cytochrome bc1 complex assessed as cytochrome c reduction by spectrophotometric analysis in presence of decylubiquinol
# Conditions: not given
row,Structure (SMILES),EC50 [µM]
1,CCOC(=O)c1c[nH]c2cc(Cc3ccc(OC(F)(F)F)cc3)ccc2c1=O,0.0013
2,O=C1C(O)=C([C@H]2CC[C@H](c3ccc(Cl)cc3)CC2)C(=O)c2ccccc21 [ATOVAQUONE],0.003

# System: Plasmodium falciparum
# Experiment: Antimalarial activity against wild type Plasmodium falciparum 3D7 assessed as growth inhibition
# Assay type: functional, organism-based
# Conditions: not given
row,Structure (SMILES),IC50
1,CCOC(=O)c1c[nH]c2ccc(OCc3ccccc3)cc2c1=O,ND(Insoluble)
2,CCOC(=O)c1c[nH]c2cc(OCc3ccccc3)ccc2c1=O,ND(Insoluble)

# Same assay, conditions: Plasmodium falciparum, 3D7; read-out: IC50
row,Structure (SMILES),IC50 [µM]
1,O=c1cc[nH]c2cc(Oc3ccccc3)ccc12,6.73
2,O=C(OC1CCCCC1)c1c[nH]c2cc(Oc3ccccc3)ccc2c1=O,0.0296
3,N#Cc1c[nH]c2ccc(Oc3ccccc3)cc2c1=O,> 10
4,CCOC(=O)c1c[nH]c2cc(Cc3ccccc3)ccc2c1=O,0.00457
5,CCOC(=O)c1c[nH]c2cc(Cc3ccc(OC(F)(F)F)cc3)ccc2c1=O,0.00046
6,CCOC(=O)c1c[nH]c2ccc(Oc3ccc(OC(F)(F)F)cc3)cc2c1=O,0.23
7,O=c1cc[nH]c2ccc(Oc3ccccc3)cc12,4.7
8,CC(C)OC(=O)c1c[nH]c2cc(Oc3ccccc3)ccc2c1=O,0.00845
9,O=C(OC1CCCCC1)c1c[nH]c2ccc(Oc3ccccc3)cc2c1=O,1.82
10,N#Cc1c[nH]c2cc(Oc3ccccc3)ccc2c1=O,8.1
11,CCOC(=O)c1c[nH]c2cc(Oc3ccccc3)ccc2c1=O,0.0193
12,CCOC(=O)c1c[nH]c2ccc(OCc3ccc(OC(F)(F)F)cc3)cc2c1=O,0.675
13,CC(C)OC(=O)c1c[nH]c2ccc(Oc3ccccc3)cc2c1=O,0.184
14,CCOC(=O)c1c[nH]c2ccc(Cc3ccc(OC(F)(F)F)cc3)cc2c1=O,0.142
15,CCOC(=O)c1c[nH]c2ccc(Cc3ccccc3)cc2c1=O,0.0404
16,CCOC(=O)c1c[nH]c2cc(Oc3ccc(OC(F)(F)F)cc3)ccc2c1=O,0.0053
17,CCOC(=O)c1c[nH]c2cc(OCc3ccc(OC(F)(F)F)cc3)ccc2c1=O,0.005
18,CCOC(=O)c1c[nH]c2ccc(Oc3ccccc3)cc2c1=O,0.164
